Laboratory results published in US10774064B2 (Cadent Therapeutics, Inc., priority 2016, dated 2020).
Values belong to the molecule of their own block, whether it stands above or below them.

Molecular target: T1, small-conductance Ca2+-activated K+ channels (SK channels, subtype 2) (Homo sapiens, UniProt Q9H2S1)
T1 construct: expressed in transfected cells; host or cells: HEK293
Experiment: whole-cell patch-clamp of ionic current through SK2 channels in HEK293 cells (SC100)
Format: cell-based
Conditions: whole-cell patch-clamp, HEK293 cells expressing SK2 channels; concentration that increases the basal current by 100%
Method in brief: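 Whole-cell patch-clamp recording of current in HEK293 cells expressing SK2 channels. SC100 is the compound concentration that increases basal current by 100%.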

Structure (SMILES): [2H]c1c(NC2CCC(F)(F)CC2)nc(-c2nc(C)cs2)nc1OC1CN(C(=O)OC)C1 [NSSy6045, methyl 3-((6-((4,4-difluorocyclohexyl)amino)-2-(4-methylthiazol-2-yl)pyrimidin-4-yl-5-d)oxy) azetidine-1-carboxylate]
SC100 (μM): + (+ means >1 uM)

Structure (SMILES): COC(=O)N1CC(Oc2cc(NC3CCC(F)(F)CC3)nc(-c3nc(CO)cs3)n2)C1 [NSSy6049, methyl 3-((6-((4,4-difluorocyclohexyl)amino)-2-(4-(hydroxymethyl)thiazol-2-yl)pyrimidin-4-yl)oxy)azetidine-1-carboxylate]
SC100 (μM): + (+ means >1 uM)

Structure (SMILES): COC(=O)N1CC(Oc2cc(NC3CCC(F)(F)CC3)nc(N3CCCC3)n2)C1 [NSSy6054]
SC100 (μM): + (+ means >1 uM)

Structure (SMILES): CC(=O)N1CCN(c2cc(NC3CCC(F)(F)CC3)nc(-c3nc(C)cs3)n2)CC1 [NSSy6055]
SC100 (μM): +++ (+++ means <200 nM)

Structure (SMILES): Cc1csc(-c2nccc(NC3CCC(F)(F)CC3)n2)n1 [NSSy6056, N-(4,4-difluorocyclohexyl)-2-(4-methylthiazol-2-yl)pyrimidin-4-amine]
SC100 (μM): ++ (++ means 200 nM-1000 nM)

Structure (SMILES): COC(=O)N1CC(Oc2ccnc(-c3nc(C)cs3)n2)C1 [NSSy6057]
SC100 (μM): + (+ means >1 uM)

Structure (SMILES): COC(=O)N1CC(Oc2cc(NC3CCC(F)(F)CC3)ncn2)C1 [NSSy6061, methyl 3-((6-((4,4-difluorocyclohexyl)amino)pyrimidin-4-yl)oxy) azetidine-1-carboxylate]
SC100 (μM): + (+ means >1 uM)

Structure (SMILES): Cc1csc(-c2nc(NC3CCC(F)(F)CC3)cc(N3CCS(=O)(=O)CC3)n2)n1 [NSSy6062]
SC100 (μM): +++ (+++ means <200 nM)

Structure (SMILES): Cc1cnc(-c2nc(NC3CCC(F)(F)CC3)cc(N3CCOCC3)n2)s1 [NSSy6067, N-(4,4-difluorocyclohexyl)-2-(5-methylthiazol-2-yl)-6-morpholinopyrimidin-4-amine]
SC100 (μM): + (+ means >1 uM)

Structure (SMILES): COC(=O)N1CC(Oc2cc(NC3CCCCC3)nc(-c3nc(C)cs3)n2)C1 [NSSy6099]
SC100 (μM): +++ (+++ means <200 nM)

Structure (SMILES): COCC1CN(c2cc(NC3CCCCC3)nc(-c3nc(C)cs3)n2)CCO1 (stereo not drawn) [NSSy6100]
SC100 (μM): ++ (++ means 200 nM-1000 nM)

Continued, values first:

SC100 (μM): + (+ means >1 uM)
Structure (SMILES): COC(=O)N1CC(Oc2cc(NC3CCC(F)(F)CC3)[n+]([O-])c(-n3ccc(C)n3)n2)C1 [NSSy6072, 6-((4,4-difluorocyclohexyl)amino)-4-((1-(methoxycarbonyl)azetidin-3-yl)oxy)-2-(3-methyl-1H-pyrazol-1-yl)pyrimidine 1-oxide]

SC100 (μM): + (+ means >1 uM)
Structure (SMILES): COC(=O)N1CC(Oc2cc(NC3CCC(C(F)(F)F)CC3)nc(-c3nc(C)cs3)n2)C1 (stereo not drawn) [NSSy6078, methyl 3-((2-(4-methylthiazol-2-yl)-6-((4-(trifluoromethyl)cyclohexyl)amino)pyrimidin-4-yl)oxy) azetidine-1-carboxylate]

SC100 (μM): + (+ means >1 uM)
Structure (SMILES): Cc1csc(-c2nc(O)cc(NC3CCC(F)(F)CC3)n2)n1 [NSSy6082, 6-((4,4-difluorocyclohexyl)amino)-2-(4-methylthiazol-2-yl)pyrimidin-4-ol]

SC100 (μM): ++ (++ means 200 nM-1000 nM)
Structure (SMILES): COC(=O)N1CC(Oc2cc(NC3C4CC5CC(C4)CC3C5)nc(-n3ccc(C)n3)n2)C1 (stereo not drawn) [NSSy6091]

SC100 (μM): ++ (++ means 200 nM-1000 nM)
Structure (SMILES): Cc1csc(-c2nc(NC3CCC(F)(F)CC3)cc(N3CCN(C)C(=O)C3)n2)n1 [NSSy6093]

SC100 (μM): +++ (+++ means <200 nM)
Structure (SMILES): COC(=O)N1CC(Oc2cc(NC34CC5CC(CC(C5)C3)C4)nc(-n3ccc(C)n3)n2)C1 [NSSy6097]

SC100 (μM): + (+ means >1 uM)
Structure (SMILES): COC(=O)N1CC(Oc2cc(N(C)C3CCC(F)(F)CC3)nc(-c3nc(C)cs3)n2)C1 [NSSy6105, methyl 3-((6-((4,4-difluorocyclohexyl) (methyl)amino)-2-(4-methylthiazol-2-yl)pyrimidin-4-yl)oxy) azetidine-1-carboxylate]
